Series [1] concerns senescent A549 cells, IMR90 cells, RPE cells, mouse chondrocytes, mouse skin fibroblasts. Nature of the series: Cell viability of senescent cells (CellTiter-Glo). Format: cell-based, human. To be noted: 1 μM, 72 hours; etoposide (10 μM)-induced senescent cells; FIGS. 2A to 2E. On the procedure:
(§1) In this example, human non-small cell lung cancer cell line (A549 cells), human embryonic lung fibroblast cell line (IMR90 cells), human retinal pigment epithelial cells (RPE cells), mouse chondrocytes, and mouse skin fibroblasts were selected. The cells above were induced to obtain senescent cells by etoposide (10 μM). The effect of the target compounds RZ001-RZ006 and RZ201 on the viability of normal and senescent cells above was detected, thereby evaluating the specific killing effect of the prodrugs RZ001-RZ006 and RZ201 on senescent cells above.
(§2) Briefly, senescent and normal cells above were selected and plated separately (96-well plates). After adding the compounds RZ001-RZ006 and RZ201 (concentration: 1 μM) for 72 hours, CellTiter-Glo® Luminescent Cell Viability Assay Kit (Promega) was used to detect cell viability, and the results were shown in FIGS. 2A to 2E.

Series [2] deals with normal A549 cells, IMR90 cells, RPE cells, mouse chondrocytes, mouse skin fibroblasts. Nature of the series: Cell viability of normal cells (CellTiter-Glo). Type of series: cell-based, human. The conditions noted are these: 1 μM, 72 hours, FIGS. 2A to 2E. The protocol: as §1, §2
Series [3] concerns normal and senescent A549 cells. Nature of the series: Senescent cell clearance index (senolytic index). Type of series: cell-based, human. To be noted: higher index = greater specificity. On the procedure:
as §1, §2
Furthermore, the senescent cell clearance index (senolytic index) was also calculated for both normal and senescent A549 cells, as shown in Table 4. A higher index indicates greater specificity in eliminating senescent cells and better safety.

For the next series, the system named is diabetic retinopathy. Nature of the series: Mouse model of diabetic retinopathy (STZ), Evans blue penetration. Format: in vivo. To be noted: intravitreal (IVT), 1 μL of 200 μM at 8 and 9 weeks after STZ; Evans blue at 10 weeks; FIG. 4. On the procedure:
The efficacy of the compounds of the present disclosure was studied in a mouse model of diabetic retinopathy by multiple administrations of streptozotocin (STZ). C57BL/6J mice at 6 to 7 weeks were weighed and their baseline blood glucose was measured (Sino). STZ (Sigma-Aldrich) was injected intraperitoneally into the mice at 55 mg/Kg for five consecutive days. Age-matched controls were injected with buffer only. Blood glucose was measured again one week after the last STZ injection. 1 μL of the test compound (200 μM, a suspension formulated in 0.015% polysorbate 80, 0.2% sodium phosphate, 0.75% sodium chloride, pH 7.2) was injected intravitreally into the STZ-treated diabetic C57BL/6J mice at 8 and 9 weeks after STZ administration. 10 weeks after STZ treatment, the retinal Evans blue penetration assay was performed.

The subject of series [4] is wet-age-related macular degeneration (CNV). Nature of the series: CNV animal model of wet age-related macular degeneration. Format: in vivo, mice. To be noted: intravitreal (IVT); laser CNV model; FIG. 5. On the procedure: In this example, the efficacy of the compounds of the present disclosure was tested on wet-age-related macular degeneration in a CNV animal model.
Male mice were administered 0.5% probacaine hydrochloride (Alcon) for local anesthesia, and 1% tropicamide to dilate the pupils of the mice. Laser cauterization was performed using a laser photocoagulator (Novus Varia, LUMENIS) with a slit lamp delivery system. And artificially torn adherent glass coverslips were used as contact lenses. Bleeding spots caused by laser were not included in the statistical data.

Series [5] relates to idiopathic pulmonary fibrosis. Nature of the series: Bleomycin idiopathic pulmonary fibrosis animal model. The conditions noted are these: intraperitoneal (IP) 5 mg/kg, 3 consecutive weeks from day 7; Day 28; FIG. 6. Format: in vivo, SD rats. On the procedure:
In this example, the efficacy of the compounds of the present disclosure was tested on idiopathic pulmonary fibrosis in an idiopathic pulmonary fibrosis animal model. Briefly, anesthetized 6-week-old SD rats were fixed on a foam board with medical tape. Firstly, the skin on the surface of the trachea was cut with surgical scissors to fully expose the trachea, and a 100-microlitre micro-syringe containing a certain volume of bleomycin (BLM 5 mg/kg) solution drawn based on the body weight of the rat was inserted into the trachea through the oral cavity to administer by slow bolus injection. After administration of the BLM solution, the foam plate was immediately rotated and shaken to distribute the BLM solution as evenly as possible in the lung tissue. Then the skin on the surface of the trachea was sutured with surgical sutures and about 0.5 to 1.0 mL of penicillin solution was dripped onto the epidermis to prevent infection of the surgical wound. After the 7th day of modelling, the compound solution of the present disclosure was administered via intraperitoneal (IP) injection (5 mg/kg) according to the weight of the rat for 3 consecutive weeks. Rats were euthanized by carbon dioxide at Day 28, the lung tissues were removed, the left alveolar lavage fluid was collected for white blood cell (WBC) counting, the right lung tissue portion was used for hydroxyproline (HYP) assay, and the remaining lung tissues were stained for pathology by H&E staining and Masson staining.

A further series deals with osteoarthritis. Nature of the series: Osteoarthritis animal model. Format: in vivo, mice. The conditions noted are these: intra-articular injection; FIG. 7. On the procedure:
In this example, the efficacy of the compounds of the present disclosure was tested on osteoarthritis in an osteoarthritis animal model.
The osteoarthritis animal model was constructed by the following steps. The mice were anesthetized with isoflurane, and fixed. The hair on the right hind limb of the mice was shaved and the skin was disinfected with alcohol, and the skin of the joints was cut. Under an optical microscope, the inside of the right knee joint was incised longitudinally with a blade, without cutting the patellar ligament. The patellar ligament was pulled to one side with constant hemostasis by compression with sterile cotton swabs such that the joint cavity was fully exposed. Saline was added dropwise in time to avoid the drying up of the joint cavity. The excess muscle tissue was gently separated with a blunt forceps to expose the meniscus ligament. The anterior cruciate ligament was found in the depth of the joint cavity and cut with micro scissor. Then the wound was disinfected with penicillin solution, the muscle was sutured with sterile needle and thread, and the skin tissue was finally sutured. The efficacy of the drug was determined by intra-articular injection administration. At the endpoint of the test, continued pain threshold of the plantar was detected, and the bone joints were stained with safranin fast green.

For the next series, the system named is Alzheimer's disease. Nature of the series: APP×PS1 transgenic mouse model of Alzheimer's disease. Format: in vivo. The conditions noted are these: intraperitoneal injection, twice a week, 11 consecutive weeks; cerebral cortex; FIG. 8. The protocol: In this example, the efficacy of the compounds of the present disclosure was tested on Alzheimer's disease in an animal model of Alzheimer's disease. Briefly, a transgenic mouse model of APP×PS1 (purchased from Cyagen Biosciences) was selected and the compound of the present disclosure was administered by intraperitoneal injection for 11 consecutive weeks, twice a week. Alterations in amyloid in the cerebral cortex of the mice were observed.

The next series concerns hepatic fibrosis. Nature of the series: CCl4 mouse model of hepatic fibrosis. Format: in vivo, mice. The conditions noted are these: intraperitoneal (IP) injection twice a week from third week of modelling; FIG. 9. On the procedure: In this example, the efficacy of the compounds of the present disclosure was tested on hepatic fibrosis in an animal model of hepatic fibrosis. Briefly, C57BL/6N mice, male, 7 to 8 weeks old, 24 to 28 g of body weight, were used. The mouse model of hepatic fibrosis was induced by intraperitoneal injection of CCl4 solution at a dosage of 1 mL/kg, with a dosing frequency of 2 times/week, and a modelling cycle of 6 weeks. Dosing via intraperitoneal injection was started from the third week of modelling twice a week. At the end of the test, serum was collected, and liver tissue was taken for Masson staining index assay.

The test system of a further series is aging skin. Nature of the series: Aging skin in naturally aging mouse model. Type of series: in vivo. To be noted: skin application twice a week, 6 consecutive weeks; aged female mice (22 months old); FIG. 10. The protocol: In this example, aged female C57bl/6J mice (22 months old) were used. The drug was administered by skin application at twice a week for 6 consecutive weeks.

Another series concerns renal fibrosis. Nature of the series: Renal fibrosis animal model (ureter ligation). Type of series: in vivo, mice. The conditions noted are these: intraperitoneal (IP) injection from 2nd week of modelling; FIG. 11. On the procedure:
In this example, the efficacy of the compound of the present disclosure was tested on renal fibrosis in an animal model of renal fibrosis. Briefly, C57BL/6J mice, male, 7 to 8 weeks old, were used. The mice were anaesthetized, made to lie supine on a foam board, and disinfected with iodophor, and a longitudinal incision was made in the skin in the middle of the lower abdomen to locate the white line of the abdominal muscle, where the abdominal muscle, fascia and peritoneal layer were dissected. After exposing the surgical field, the kidneys were exposed by pushing the stomach and mesentery of the mice to the right side with a gauze soaked with saline. The model of renal fibrosis was constructed by locating the transparent ureter from the renal pelvis along the renal artery, separating the left ureter, ligating the upper ⅓ of the left ureter, suturing the incision layer by layer, and finally disinfecting with iodophor. Dosing via intraperitoneal injection was started from the 2nd week of modelling. At the end of the experiment, the mouse serum was collected and kidney tissues were taken for Masson staining index assay.

As for `Cc1c(-c2ccc(N3CCc4cccc(C(=O)Nc5nc6ccccc6s5)c4C3)nc2C(=O)O)cnn1CC12CC3CC(CC(C3)C1)C2` [Compound A-1331852, reference compound], in series [1], the “cytotoxicity against senescent cells (cell viability)” value is “killing senescent cells”. In addition, the “cytotoxicity against normal cells (cell viability)” value in series [2] is on record as “significant cytotoxicity against normal cells”. Also, the “senescent cell clearance index (Senolytic Index)” value (“senescent cell clearance index” for short) in [3] is reported as “D (D represents 30 to 50)”.

As to `Cc1c(-c2ccc(N3CCc4cccc(C(=O)Nc5nc6ccccc6s5)c4C3)nc2C(=O)OCOC(=O)OC(C)C)cnn1CC12CC3CC(CC(C3)C1)C2` [RZ002], in series [3], the “senescent cell clearance index” value is listed as “B (B represents 100 to 200)”. Also, the “vascular permeability in both the retinal and choroidal vascular leakage” value in the series with diabetic retinopathy is recorded as “improved vascular permeability”. Further, in series [4], the fluorescence intensity indicators result is reported as “statistically significant improvements”. Besides, in [5], the “HYP (hydroxyproline, lung tissue)” value is “statistically significant improvements”; the “WBC (white blood cell count, alveolar lavage fluid)” value is “statistically significant improvements”; the “pathology scores (H&E and Masson staining, lung)” value is on record as “statistically significant improvements”. Besides, in the series on osteoarthritis, the “pathology scores of safranin fast green staining” value was “statistically significant improvements” and the “plantar mechanical pain threshold” value was “statistically significant improvements”. Further, in the series with Alzheimer's disease, the “Aβ42 pathogenic protein indicators” value is given as “statistically significant improvements”. Moreover, in the series on hepatic fibrosis, the “pathology scores (liver, Masson staining)” value is recorded as “statistically significant improvements”; the “serum alanine aminotransferase (ALT) levels” value is reported as “statistically significant improvements”; the “serum aspartate aminotransferase (AST) levels” value is “statistically significant improvements”. Also, in the series on aging skin, the “epidermal thickness scores of the skin” value was “statistically significant improvements”. Further, in the series on renal fibrosis, the “pathology (kidney, Masson staining)” value was “statistically significant improvements”; the “serum creatinine (Cr) levels” value is on record as “statistically significant improvements”; the “serum urea nitrogen (BUN) levels” value is on record as “statistically significant improvements”.

Take `Cc1c(-c2ccc(N3CCc4cccc(C(=O)Nc5nc6ccccc6s5)c4C3)nc2C(=O)OCOC(=O)C(C)(C)C)cnn1CC12CC3CC(CC(C3)C1)C2` [RZ003]: the “senescent cell clearance index” value in series [3] is given as “B (B represents 100 to 200)”.

As to `CCCC(=O)OCOC(=O)c1nc(N2CCc3cccc(C(=O)Nc4nc5ccccc5s4)c3C2)ccc1-c1cnn(CC23CC4CC(CC(C4)C2)C3)c1C` [RZ004], the “senescent cell clearance index” value in [3] is given as “B (B represents 100 to 200)”.

Turning to `CC(=O)OCOC(=O)c1nc(N2CCc3cccc(C(=O)Nc4nc5ccccc5s4)c3C2)ccc1-c1cnn(CC23CC4CC(CC(C4)C2)C3)c1C` [RZ005], the “senescent cell clearance index” value in series [3] is given as “B (B represents 100 to 200)”.

Consider `CCOC(=O)OCOC(=O)c1nc(N2CCc3cccc(C(=O)Nc4nc5ccccc5s4)c3C2)ccc1-c1cnn(CC23CC4CC(CC(C4)C2)C3)c1C` [RZ006], for which the “senescent cell clearance index” value in [3] is reported as “B (B represents 100 to 200)”.

With `CCC(=O)OC(OC(=O)c1nc(N2CCc3cccc(C(=O)Nc4nc5ccccc5s4)c3C2)ccc1-c1cnn(CC23CC4CC(CC(C4)C2)C3)c1C)C(C)C` (stereo not drawn) [RZ007], the “senescent cell clearance index” value in [3] was “B (B represents 100 to 200)”.

Turning to `CCCCOC(=O)c1nc(N2CCc3cccc(C(=O)Nc4nc5ccccc5s4)c3C2)ccc1-c1cnn(CC23CC4CC(CC(C4)C2)C3)c1C` [RZ008], in [3], the “senescent cell clearance index” value is recorded as “F (F represents less than 10)”.

As to `Cc1c(-c2ccc(N3CCc4cccc(C(=O)Nc5nc6ccccc6s5)c4C3)nc2C(=O)OC(C)OC(=O)C(C)C)cnn1CC12CC3CC(CC(C3)C1)C2` (stereo not drawn) [RZ009], in series [3], the “senescent cell clearance index” value is listed as “B (B represents 100 to 200)”.

In the case of `Cc1c(-c2ccc(N3CCc4cccc(C(=O)Nc5nc6ccccc6s5)c4C3)nc2C(=O)OC(C)OC(=O)OC(C)C)cnn1CC12CC3CC(CC(C3)C1)C2` (stereo not drawn) [RZ010], the “senescent cell clearance index” value in series [3] is recorded as “C (C represents 50 to 100)”.

For the compound `Cc1c(-c2ccc(N3CCc4cccc(C(=O)Nc5nc6ccccc6s5)c4C3)nc2C(=O)OCCN2CCOCC2)cnn1CC12CC3CC(CC(C3)C1)C2` [RZ011], in series [3], the “senescent cell clearance index” value is listed as “F (F represents less than 10)”.

In the case of `CCOC(=O)c1nc(N2CCc3cccc(C(=O)Nc4nc5ccccc5s4)c3C2)ccc1-c1cnn(CC23CC4CC(CC(C4)C2)C3)c1C` [RZ202], the “senescent cell clearance index” value in series [3] is recorded as “F (F represents less than 10)”.

Turning to `Cc1c(-c2ccc(N3CCc4cccc(C(=O)Nc5nc6ccccc6s5)c4C3)nc2C(=O)OCOC(=O)[C@@H](N)C(C)C)cnn1CC12CC3CC(CC(C3)C1)C2` [RZ301], the “senescent cell clearance index” value in series [3] was “B (B represents 100 to 200)”.

The record behind these values is patent publication US20250376466A1, “ESTER COMPOUNDS AND USE THEREOF” (NANJING REJU THERAPEUTICS, CO., LTD., priority 2022, published 2025).
